{"source": "patent US9463173B2", "about": "“Compositions and methods for treating obesity and obesity-related conditions” (THE JOHNS HOPKINS UNIVERSITY, priority 2014, dated 2016)", "key": {"AMPK [1]": {"system": "AMPK", "test": "AMPK/ACC phosphorylation in primary mouse hepatocytes (immunoblot)", "assay_type": "cell-based", "set-up": "Phosphorylation (Ser79) of ACC / AMPK protein levels / ACC protein levels / Phosphorylation of ACC stimulated by VPA, in presence of AMPK inhibitor: dose or concentration left out as unconfirmed", "details": "for Levels of phosphorylated AMPK/ACC compared with VPA: 20 mM metabolite vs 800 mM VPA, 2 hours; for Levels of phosphorylated AMPK/ACC at higher concentration: 100 mM metabolite (data not shown)", "protocol": "Proteins (20 mg) were resolved by sodium dodecyl sulfate polyacrylamide gel electrophoresis, electrotransferred to a nitrocellulose membrane, and probed using antibodies against AMPKa, phosphorylated (p-) AMPKa (Thr172), ACC, p-ACC (Ser79), and b-actin (obtained from Cell Signaling Technology, Danvers, Mass.)."}, "[2]": {"system": "HDAC activity of mouse liver nuclear extracts", "test": "HDAC activity fluorometric assay, crude nuclear extracts", "assay_type": "biochemical", "set-up": "dose or concentration left out as unconfirmed", "details": "mean ± S.D.", "protocol": "(§1) FIG. 5A-5D. […] Deacetylation was measured using a fluorimetric assay. […] AMPKa was immunoprecipitated and immunoblotted for AMPKa and acetylated lysine (D). Immunoblots shown in D are representative of three independent experiments. Data in graphs are reported as the mean […] S.D. of samples from four independent experiments. […] DMSO, dimethylsulfoxide.\n(§2) Analysis of HDAC activity was performed using an HDAC activity fluorometric assay kit (Caymen Chemicals, Ann Arbor, Mich.) and was carried out according to the manufacturer's instructions. Crude nuclear extracts were prepared from primary mouse hepatocytes as described in the manufacturer's instructions."}, "AMPK [3]": {"system": "AMPK", "test": "AMPK/ACC phosphorylation in primary human hepatocytes (immunoblot)", "assay_type": "cell-based", "set-up": "dose or concentration left out as unconfirmed", "details": "1 to 24 hours; following 1 hour; each of four donors", "protocol": "Primary human hepatocytes were obtained from XenoTech LLC (Lenexa, Kans.). Four preparations were used: […]. The hepatocytes had reported viabilities of 95.4, 74.7, 77.9, and 74.9%, respectively. Upon receipt, the shipping medium was changed to Williams' E medium containing 10% FBS, penicillin, streptomycin, and L-glutamine. Following 24 hours of incubation at 37° C. and 5% CO2, the media was changed to 5% FBS, penicillin, streptomycin, and L-glutamine 4 hours prior to treatments.\nCells were harvested as previously described (Bumpus, 2011). Proteins ([…]) were resolved by sodium dodecyl sulfate polyacrylamide gel electrophoresis, electrotransferred to a nitrocellulose membrane, and probed using antibodies against AMPKa, phosphorylated (p-) AMPKa (Thr172), ACC, p-ACC (Ser79), and b-actin (obtained from Cell Signaling Technology, Danvers, Mass.)."}, "[4]": {"details": "10 mg/kg/day in adults; cited from earlier work"}, "AMPKa": {"system": "AMPKa", "test": "AMPKa acetylation status in hepatocytes (immunoprecipitation, acetylated lysine immunoblot)", "assay_type": "cell-based, mouse", "protocol": "as §1"}, "ob/ob mice": {"system": "ob/ob mice", "test": "In vivo mouse study, 14 days via drinking water", "details": "for Accumulation of fats in the liver (histology) compared with untreated mice: hematoxylin and eosin staining; for Body mass day 1: day 1 prior to treatment; for Body mass day 7 / Body mass day 14: 0.26% (w/v) VPA or 0.5% (w/v) metformin in drinking water", "protocol": "FIG. 6A-6E. […] A section of each liver was analyzed using hemotoxylin and eosin staining Histology images are representative of four mice per treatment group (A). The mass of each liver was measured and calculated as a ratio to body mass (B). Serum glucose (C) and serum triglyceride (D) concentrations were measured using colorimetric assays. ALT was measured using a colorimetric assay to assess for hepatotoxicity (E). Data in graphs are reported as the mean […] S.D. of four mice per cohort.\nAll treatments of mice as a part of this study were in accordance with protocols that were approved by the Institutional Animal Care and Use Committee of The Johns Hopkins University School of Medicine. […] Body masses were recorded on day 1 prior to treatment, day 7, and day 14. After 14 days of drug treatments, all mice were euthanized by isoflurane inhalation followed by cervical dislocation, and whole blood was collected immediately. The livers were weighed immediately, rinsed in cold phosphate-buffered saline, and fixed in 10% formalin for 48 hours for hematoxylin and eosin staining.\nSerum glucose was analyzed using a Colorimetric Glucose Assay obtained from BioVision, Inc. (Milpitas, Calif.) and was performed according to manufacturer's instructions. Serum triglycerides were analyzed utilizing a Serum Triglyceride Determination Kit obtained from Sigma-Aldrich and was performed according to manufacturer's instructions."}, "human recombinant HDAC1": {"molecular_target": "human recombinant HDAC1 (Homo sapiens, UniProt Q13547)", "sequence (Q13547 whole entry)": "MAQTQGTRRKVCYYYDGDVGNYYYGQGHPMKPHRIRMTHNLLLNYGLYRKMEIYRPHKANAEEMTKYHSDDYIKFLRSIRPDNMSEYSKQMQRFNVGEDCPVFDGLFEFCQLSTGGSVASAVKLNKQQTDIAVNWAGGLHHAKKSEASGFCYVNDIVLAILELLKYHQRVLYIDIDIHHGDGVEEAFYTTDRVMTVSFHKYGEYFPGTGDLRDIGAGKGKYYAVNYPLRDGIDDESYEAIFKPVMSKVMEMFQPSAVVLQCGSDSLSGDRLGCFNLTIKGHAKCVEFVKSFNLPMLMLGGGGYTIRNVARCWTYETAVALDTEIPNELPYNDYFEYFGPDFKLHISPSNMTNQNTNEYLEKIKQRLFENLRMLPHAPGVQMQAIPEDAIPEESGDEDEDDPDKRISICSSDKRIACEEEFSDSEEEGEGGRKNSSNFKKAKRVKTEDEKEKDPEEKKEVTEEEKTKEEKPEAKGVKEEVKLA", "test": "HDAC activity fluorometric assay, recombinant HDAC1", "assay_type": "biochemical", "details": "800 mM VPA; 1 mM TSA; 20 mM metabolites; mean ± S.D.", "protocol": "as §1, §2"}}}
{"smiles": "c1cc(-c2cnn3cc(-c4ccc(OCCN5CCCCC5)cc4)cnc23)ccn1", "note": "[Compound C, 6-[4-(2-piperidin-1-ylethoxy)phenyl]-3-pyridin-4-ylpyrazolo[1,5-a]pyrimidine]", "values": [{"measurement": "Phosphorylation of ACC stimulated by VPA, in presence of AMPK inhibitor", "setting": "AMPK [1]; Compound C 30 minutes prior to VPA for 2 hours", "value": "abrogated"}]}
{"smiles": "CC(/C=C/C(=O)NO)=C\\[C@@H](C)C(=O)c1ccc(N(C)C)cc1", "note": "[TSA, trichostatin A]", "values": [{"measurement": "deacetylation as compared with samples treated with vehicle only", "setting": "[2]", "value": "34.6±4.3", "unit": "%"}]}
{"smiles": "CCCC(CCC)C(=O)O", "note": "[VPA, valproic acid]", "values": [{"measurement": "Phosphorylation of AMPK and ACC", "setting": "AMPK [3]", "value": "observed"}, {"measurement": "Concentration at which maximal phosphorylation of AMPK and ACC was observed", "setting": "AMPK [1]; 2-hour treatment, concentrations from 200 mM to 2 mM", "value": 800, "unit": "mM"}, {"measurement": "ACC protein levels", "setting": "AMPK [1]; VPA", "value": "not significantly different"}, {"measurement": "AMPK protein levels", "setting": "AMPK [1]; VPA", "value": "did not change significantly"}, {"measurement": "Phosphorylation (Ser79) of ACC", "setting": "AMPK [1]; VPA, time course 1-24 hours", "value": "observed"}, {"measurement": "Serum concentrations of VPA", "setting": "[4]", "value": "400 to 1000", "unit": "µM"}, {"measurement": "Acetylation of AMPKa compared with vehicle treatment samples", "setting": "AMPKa", "value": "commensurate"}, {"measurement": "deacetylation as compared with samples treated with vehicle only", "setting": "[2]", "value": "76.4±1.2", "unit": "%"}, {"measurement": "Accumulation of fats in the liver (histology) compared with untreated mice", "setting": "ob/ob mice; 14 days", "value": "marked reduction"}, {"measurement": "Body mass day 1", "setting": "ob/ob mice", "value": "50.2 ± 3", "unit": "g"}, {"measurement": "Body mass day 7", "setting": "ob/ob mice", "value": "51.8 ± 3", "unit": "g"}, {"measurement": "Body mass day 14", "setting": "ob/ob mice", "value": "53.8 ± 2.7", "unit": "g"}, {"measurement": "Abnormalities in the histology of treated livers", "setting": "ob/ob mice; mouse, in vivo", "value": "did not detect any abnormalities"}, {"measurement": "deacetylation", "setting": "human recombinant HDAC1", "value": "73.2±5", "unit": "%"}]}
{"smiles": "Nn1nnc2ccccc21", "note": "[ABT, 1-aminobenzotriazole]", "values": [{"measurement": "Levels of phosphorylated AMPK, ABT and VPA compared with ABT alone", "setting": "AMPK [1]; 1 mM ABT 1 hour prior to VPA for 2 hours", "value": "not elevated"}]}
{"smiles": "CN(C)C(=N)N=C(N)N", "note": "[metformin, Metformin]", "values": [{"measurement": "Ratio of liver mass to body mass compared with untreated mice", "setting": "ob/ob mice; 14 days", "value": "significantly decreased"}, {"measurement": "Serum ALT activity", "setting": "ob/ob mice; 14 days", "value": "13.3±4", "unit": "mU/ml"}, {"measurement": "Serum glucose concentrations compared with untreated mice", "setting": "ob/ob mice; 14 days", "value": "significantly decreased"}, {"measurement": "Serum triglyceride concentrations compared with untreated mice", "setting": "ob/ob mice; 14 days", "value": "decreased"}, {"measurement": "Accumulation of fats in the liver (histology) compared with untreated mice", "setting": "ob/ob mice; 14 days", "value": "marked reduction"}, {"measurement": "Body mass day 1", "setting": "ob/ob mice", "value": "45.4 ± 6", "unit": "g"}, {"measurement": "Body mass day 7", "setting": "ob/ob mice", "value": "47.4 ± 5.6", "unit": "g"}, {"measurement": "Body mass day 14", "setting": "ob/ob mice", "value": "50 ± 6.1", "unit": "g"}]}
{"smiles": "CCCC(C(=O)[O-])C(=O)CC.[Na+]", "note": "(stereo not drawn) [3-keto-VPA, 3-oxo-2-propyl-pentanoic Acid Sodium Salt]", "values": [{"measurement": "deacetylation as compared with samples treated with vehicle only", "setting": "[2]", "value": "94±7.3", "unit": "%"}, {"measurement": "deacetylation", "setting": "human recombinant HDAC1", "value": "90.9±15.2", "unit": "%"}]}
{"smiles": "CCCC(C(=O)O)C(O)CC", "note": "(stereo not drawn) [3-OH-VPA, 3-Hydroxy-2-propylpentanoic Acid]", "values": [{"measurement": "Levels of phosphorylated AMPK/ACC compared with VPA", "setting": "AMPK [1]", "value": "greater than treatment with VPA itself"}, {"measurement": "Levels of phosphorylated AMPK/ACC at higher concentration", "setting": "AMPK [1]", "value": "commensurate with those observed using 20 mM of metabolites"}, {"measurement": "deacetylation as compared with samples treated with vehicle only", "setting": "[2]", "value": "98±3.9", "unit": "%"}, {"measurement": "deacetylation", "setting": "human recombinant HDAC1", "value": "86±16.8", "unit": "%"}]}
{"smiles": "CC/C=C(\\CCC)C(=O)O", "note": "[2-ene-VPA, (E,Z) 2-Propyl-2-pentenoic Acid]", "values": [{"measurement": "Levels of phosphorylated AMPK/ACC compared with VPA", "setting": "AMPK [1]", "value": "greater than treatment with VPA itself"}, {"measurement": "Levels of phosphorylated AMPK/ACC at higher concentration", "setting": "AMPK [1]", "value": "commensurate with those observed using 20 mM of metabolites"}, {"measurement": "deacetylation as compared with samples treated with vehicle only", "setting": "[2]", "value": "93.6±3.6", "unit": "%"}, {"measurement": "deacetylation", "setting": "human recombinant HDAC1", "value": "90±9.1", "unit": "%"}]}
{"smiles": "C=CCC(CCC)C(=O)O", "note": "(racemic) [4-ene-VPA, (+/−)-2-Propyl-4-pentenoic Acid]", "values": [{"measurement": "Levels of phosphorylated AMPK/ACC compared with VPA", "setting": "AMPK [1]", "value": "greater than treatment with VPA itself"}, {"measurement": "Levels of phosphorylated AMPK/ACC at higher concentration", "setting": "AMPK [1]", "value": "commensurate with those observed using 20 mM of metabolites"}, {"measurement": "deacetylation as compared with samples treated with vehicle only", "setting": "[2]", "value": "90.1±3.9", "unit": "%"}, {"measurement": "deacetylation", "setting": "human recombinant HDAC1", "value": "81.5±15.5", "unit": "%"}]}
